From BindingDB's records for doi:10.1042/BJ20021535 (University of Dundee, 2003)

Assays:
[1] = target: Tyrosine-protein kinase Lck (Homo sapiens, UniProt P06239)
[2] = target: Cyclin-dependent kinase 2 (Homo sapiens, UniProt P24941)
[3] = target: T1, Serine/threonine-protein kinase Sgk1 (Homo sapiens, UniProt O00141)
T1 sequence (O00141 whole entry): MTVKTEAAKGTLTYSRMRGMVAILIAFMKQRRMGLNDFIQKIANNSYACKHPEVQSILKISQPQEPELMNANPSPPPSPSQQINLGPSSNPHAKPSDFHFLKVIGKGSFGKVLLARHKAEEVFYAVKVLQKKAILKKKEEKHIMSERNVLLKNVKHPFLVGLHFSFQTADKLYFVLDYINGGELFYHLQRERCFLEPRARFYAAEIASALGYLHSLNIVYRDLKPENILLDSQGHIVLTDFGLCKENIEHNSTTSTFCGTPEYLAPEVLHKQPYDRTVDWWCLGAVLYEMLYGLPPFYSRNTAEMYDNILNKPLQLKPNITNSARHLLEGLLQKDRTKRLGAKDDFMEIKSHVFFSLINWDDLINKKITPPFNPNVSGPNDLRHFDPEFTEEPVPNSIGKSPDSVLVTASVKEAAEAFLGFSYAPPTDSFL

Ninein = Ninein (Homo sapiens, UniProt Q8N4C6)
Ninein, sequence (Q8N4C6 whole entry, canonical isoform): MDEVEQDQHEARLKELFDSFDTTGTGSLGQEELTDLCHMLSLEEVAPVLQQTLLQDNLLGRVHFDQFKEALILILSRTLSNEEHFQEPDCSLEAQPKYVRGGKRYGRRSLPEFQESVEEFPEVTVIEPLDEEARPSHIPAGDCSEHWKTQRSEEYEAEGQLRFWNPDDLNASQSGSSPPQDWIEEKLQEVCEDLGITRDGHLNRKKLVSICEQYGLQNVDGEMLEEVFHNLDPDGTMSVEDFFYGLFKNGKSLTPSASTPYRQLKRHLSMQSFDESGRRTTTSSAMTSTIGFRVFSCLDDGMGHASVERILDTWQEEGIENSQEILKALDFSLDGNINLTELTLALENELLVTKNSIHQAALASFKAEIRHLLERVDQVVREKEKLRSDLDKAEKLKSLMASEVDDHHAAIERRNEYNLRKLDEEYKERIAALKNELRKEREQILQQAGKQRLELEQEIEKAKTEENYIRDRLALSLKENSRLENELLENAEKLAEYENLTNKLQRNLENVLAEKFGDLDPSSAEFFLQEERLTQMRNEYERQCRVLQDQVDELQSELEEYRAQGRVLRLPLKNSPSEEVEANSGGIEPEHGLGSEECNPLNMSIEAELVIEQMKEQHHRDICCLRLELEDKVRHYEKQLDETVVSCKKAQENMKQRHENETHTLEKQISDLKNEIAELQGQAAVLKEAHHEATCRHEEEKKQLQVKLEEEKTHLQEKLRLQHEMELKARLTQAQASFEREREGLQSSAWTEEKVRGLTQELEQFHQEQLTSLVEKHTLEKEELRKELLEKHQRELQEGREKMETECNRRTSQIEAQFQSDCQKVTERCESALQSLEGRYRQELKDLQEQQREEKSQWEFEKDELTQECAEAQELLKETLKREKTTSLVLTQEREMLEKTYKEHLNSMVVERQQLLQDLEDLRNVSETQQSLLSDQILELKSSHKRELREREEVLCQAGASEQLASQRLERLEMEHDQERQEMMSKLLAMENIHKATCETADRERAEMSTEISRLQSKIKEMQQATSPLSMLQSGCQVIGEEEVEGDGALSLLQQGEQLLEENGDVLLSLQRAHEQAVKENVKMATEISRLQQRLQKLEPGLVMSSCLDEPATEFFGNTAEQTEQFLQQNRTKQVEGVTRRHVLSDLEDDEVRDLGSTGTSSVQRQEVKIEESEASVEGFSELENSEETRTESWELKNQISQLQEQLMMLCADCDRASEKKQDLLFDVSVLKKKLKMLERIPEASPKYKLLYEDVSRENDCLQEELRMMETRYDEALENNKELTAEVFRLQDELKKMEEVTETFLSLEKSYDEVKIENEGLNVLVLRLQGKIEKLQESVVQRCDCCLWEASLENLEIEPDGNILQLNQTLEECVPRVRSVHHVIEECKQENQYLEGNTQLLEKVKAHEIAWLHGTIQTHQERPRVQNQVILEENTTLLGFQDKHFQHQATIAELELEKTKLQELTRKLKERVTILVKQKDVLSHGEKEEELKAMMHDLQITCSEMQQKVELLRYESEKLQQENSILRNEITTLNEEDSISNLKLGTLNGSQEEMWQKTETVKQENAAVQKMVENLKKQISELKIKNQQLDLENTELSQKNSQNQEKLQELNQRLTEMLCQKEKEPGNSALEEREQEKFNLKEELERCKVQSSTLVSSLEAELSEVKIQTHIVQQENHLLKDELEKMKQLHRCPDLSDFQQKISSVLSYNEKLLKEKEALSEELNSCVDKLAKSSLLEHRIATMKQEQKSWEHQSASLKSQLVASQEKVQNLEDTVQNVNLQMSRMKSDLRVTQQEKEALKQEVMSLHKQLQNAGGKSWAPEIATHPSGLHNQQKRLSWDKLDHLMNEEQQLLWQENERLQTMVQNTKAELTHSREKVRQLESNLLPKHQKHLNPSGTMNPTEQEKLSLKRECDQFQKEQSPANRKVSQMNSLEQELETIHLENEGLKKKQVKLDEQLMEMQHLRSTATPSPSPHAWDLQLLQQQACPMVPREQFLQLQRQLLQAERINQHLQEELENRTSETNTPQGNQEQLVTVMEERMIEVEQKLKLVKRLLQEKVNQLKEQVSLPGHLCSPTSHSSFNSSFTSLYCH

[4] = target: Casein kinase I isoform delta (Rattus norvegicus, UniProt Q06486)
Casein kinase I isoform delta, sequence (Q06486 whole entry, canonical isoform): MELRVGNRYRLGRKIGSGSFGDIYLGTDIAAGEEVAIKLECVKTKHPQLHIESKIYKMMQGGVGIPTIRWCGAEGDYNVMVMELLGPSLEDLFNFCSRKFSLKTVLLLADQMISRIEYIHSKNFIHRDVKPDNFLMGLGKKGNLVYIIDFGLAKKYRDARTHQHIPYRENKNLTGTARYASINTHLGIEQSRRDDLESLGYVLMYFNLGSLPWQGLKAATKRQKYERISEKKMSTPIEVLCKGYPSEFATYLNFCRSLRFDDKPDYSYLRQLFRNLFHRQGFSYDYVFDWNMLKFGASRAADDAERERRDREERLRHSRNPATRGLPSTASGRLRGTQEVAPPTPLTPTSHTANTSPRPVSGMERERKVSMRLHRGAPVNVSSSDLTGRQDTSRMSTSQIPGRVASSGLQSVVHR

[5] = target: Dual specificity tyrosine-phosphorylation-regulated kinase 1A (Rattus norvegicus, UniProt Q63470)

Tyrosine-protein kinase Lck, sequence (P06239 whole entry): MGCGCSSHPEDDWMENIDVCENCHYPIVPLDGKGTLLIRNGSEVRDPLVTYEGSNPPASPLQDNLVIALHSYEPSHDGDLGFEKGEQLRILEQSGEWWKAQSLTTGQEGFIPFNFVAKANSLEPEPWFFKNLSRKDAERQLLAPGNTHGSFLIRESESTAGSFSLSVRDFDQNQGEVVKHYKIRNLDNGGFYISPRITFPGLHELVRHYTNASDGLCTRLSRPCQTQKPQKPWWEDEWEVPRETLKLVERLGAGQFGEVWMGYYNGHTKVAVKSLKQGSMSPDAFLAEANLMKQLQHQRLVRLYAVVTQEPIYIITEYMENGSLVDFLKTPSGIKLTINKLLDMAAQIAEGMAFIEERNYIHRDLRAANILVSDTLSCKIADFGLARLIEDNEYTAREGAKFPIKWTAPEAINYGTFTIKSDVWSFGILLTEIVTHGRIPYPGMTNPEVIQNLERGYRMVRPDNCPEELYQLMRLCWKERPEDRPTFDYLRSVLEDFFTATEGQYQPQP

SMILES | Ki (Ninein) [nM] | Ki [2] [nM] | Ki [4] [nM] | also measured
CC[C@H](CO)Nc1nc(NCc2ccccc2)c2ncn(C(C)C)c2n1 [2,6,9-Trisubstituted purine deriv. 28] | – | – | > 10000 | –
Nc1ncnc2c1cnn2-c1ccccc1 [1-Phenyl-1H-pyrazolo[3,4-d]pyrimidin-4-ylamine] | – | – | 9900 | –
CC(C)[C@H](CO)Nc1nc(Nc2cccc(Cl)c2)c2ncn(C(C)C)c2n1 [(2R)-2-({6-[(3-chlorophenyl)amino]-9-(propan-2-yl)-9H-purin-2-yl}amino)-3-methylbutan-1-ol] | – | 100 | – | Ki [5]: 300 nM

The next lines start with results.

Ki (Ninein) [nM] | SMILES | Ki [2] [nM] | Ki [4] [nM] | also measured
190 | O=Nc1c(C2C(=O)Nc3ccccc32)[nH]c2ccccc12 (centres undefined) [Indirubin-3 -monoxime] | 590 | – | Ki [1]: 300 nM; Ki [3]: 380 nM
110 | O=C1Cc2c([nH]c3ccc([N+](=O)[O-])cc23)-c2ccccc2N1 [NSC 705701] | – | – | –
